# Tested on: 293T-HRE-GFP-luc cells
# Experiment: Cell-based reporter assay for IC50 determinations
# Conditions: hypoxia 6 hrs (1% O2), luminescence, read-out: IC50 Classification
# Description: Cell-Based Reporter Assay for IC50 Determinations
# 293T-HRE-GFP-luc cells were routinely maintained in DMEM media (high glucose version with GlutaMAX and HEPES, Gibco, catalog #10564) supplemented with 10% fetal bovine serum and 2 μg/mL puromycin (Invitrogen, catalog #A11138-03) using a humidified incubator (normoxia conditions consisting of 37° C., 5% CO2 and ambient O2).
# In preparation for the reporter assay, cells were harvested and resuspended in DMEM media (high glucose version with GlutaMAX and HEPES) supplemented with 10% fetal bovine serum. Cells were inoculated into 384-well white Culturplates (Perkin Elmer catalog #6007680) at a density of 12,000 cells/well in a volume of 30 μL. The microplates were incubated overnight (approximately 17-19 hours) at 37° C. with 5% CO2 and ambient O2. Stock solutions of the test compounds were prepared in DMSO (Sigma, Catalog #D2650) and serially diluted 1:3 using DMSO. Compounds were additionally diluted (1:50) with culturemedium and 10 μL were added per well to the Culturplate. Following a 30 min. incubation under normoxia conditions, the plates were incubated in hypoxia for 6 hrs. (37° C., 5% CO2 and 1% O2). Steadylite Plus (Perkin Elmer, catalog #6016751) was then added (40 μL/well), the plates were mixed on an orbital shaker at room temperature in the dark for 15 min., and luminescence was measured using an Envision plate reader (Perkin Elmer). IC50 values were calculated using a four-parameter logistic curve fit. Results are shown below in Table 2; ND indicates no data.
row,SMILES,IC50 [nM]
1,Cc1nc(-c2ccc(-c3ccccc3)o2)nn1Cc1ccnc(N2CCN(C)CC2)c1 [Example 3],1000 to 10000
2,"Cc1nc(-c2nc(-c3ccc(OC(F)(F)F)cc3)no2)nn1Cc1ccc(C(C)C)cc1 [Example 109, 5-(1-(4-isopropylbenzyl)-5-methyl-1H-1,2,4-triazol-3-yl)-3-(4-(trifluoromethoxy)phenyl)-1,2,4-oxadiazole]",100 to 1000
3,"Cc1nc(-c2nc(-c3ccc(OC(F)(F)F)cc3)cs2)nn1Cc1cccc(O)c1 [Example 151, 3-[(5-methyl-3-{4-[4-(trifluoromethoxy)phenyl]-1,3-thiazol-2-yl}-1H-1,2,4-triazol-1-yl)methyl]phenol]",100 to 1000
4,"Cc1nc(-c2nc(-c3ccc(OC(F)(F)F)cc3)no2)nn1Cc1cccc(S(=O)(=O)N2CCCC2)c1 [Example 133, 5-(5-methyl-1-{[3-(pyrrolidine-1-sulfonyl)phenyl]methyl}-1H-1,2,4-triazol-3-yl)-3-[4-(trifluoromethoxy)phenyl]-1,2,4-oxadiazole]",< 100
5,"Cc1nc(-c2nc(-c3ccc(OC(F)(F)F)cc3)no2)nn1Cc1cccc(OCC#N)c1 [Example 66, 2-{3-[(5-Methyl-3-{3-[4-(trifluoromethoxy)phenyl]-1,2,4-oxadiazol-5-yl}-1H-1,2,4-triazol-1-yl)methyl]phenoxy}acetonitrile]",100 to 1000
6,"Cc1nc(-c2nc(-c3ccc(OC(F)(F)F)cc3)no2)nn1Cc1cccc(C(=O)N2CC(O)C2)c1 [Example 123, 1-{3-[(5-methyl-3-{3-[4-(trifluoromethoxy)phenyl]-1,2,4-oxadiazol-5-yl}-1H-1,2,4-triazol-1-yl)methyl]benzoyl}azetidin-3-ol]",< 100
7,"Cc1nc(-c2cc(-c3ccc(OC(F)(F)F)cc3)no2)nn1Cc1cccc(N2CCN(C)CC2)c1 [Example 160, 1-methyl-4-{3-[(5-methyl-3-{3-[4-(trifluoromethoxy)phenyl]-1,2-oxazol-5-yl}-1H-1,2,4-triazol-1-yl)methyl]phenyl}piperazine]",< 100
8,"Cc1nc(-c2nc(-c3ccc(OC(F)(F)F)cc3)no2)nn1Cc1ccc2c(c1)nnn2C [Example 114, 5-(5-methyl-1-((1-methyl-1H-benzo[d][1,2,3]triazol-5-yl)methyl)-1H-1,2,4-triazol-3-yl)-3-(4-(trifluoromethoxy)phenyl)-1,2,4-oxadiazole]",100 to 1000
9,"Cc1nc(-c2nc(-c3ccc(OC(F)(F)F)cc3)no2)nn1Cc1ccc(S(N)(=O)=O)cc1 [Example 105, 4-((5-methyl-3-(3-(4-(trifluoromethoxy)phenyl)-1,2,4-oxadiazol-5-yl)-1H-1,2,4-triazol-1-yl)methyl)benzenesulfonamide]",100 to 1000
10,"Cc1nc(-c2nc(-c3ccc(OC(F)(F)F)cc3)no2)nn1Cc1cccc(N)c1 [Example 78, 3-[(5-Methyl-3-{3-[4-(trifluoromethoxy)phenyl]-1,2,4-oxadiazol-5-yl}-1H-1,2,4-triazol-1-yl)methyl]aniline]",< 100
11,"Cc1nc(-c2nc(-c3ccc(OC(F)(F)F)cc3)no2)nn1Cc1cncnc1 [Example 99, 5-(5-methyl-1-(pyrimidin-5-ylmethyl)-1H-1,2,4-triazol-3-yl)-3-(4-(trifluoromethoxy)phenyl)-1,2,4-oxadiazole]",1000 to 10000
12,"Cc1ccc(Cn2nc(-c3ncc(-c4ccc(OC(F)(F)F)cc4)o3)nc2C)cc1 [Example 154, 5-methyl-1-[(4-methylphenyl)methyl]-3-{5-[4-(trifluoromethoxy)phenyl]-1,3-oxazol-2-yl}-1H-1,2,4-triazole]",100 to 1000
13,"Cc1nc(-c2nc(-c3ccc(OC(F)(F)F)cc3)no2)nn1Cc1cccc(S(=O)(=O)NCC(N)=O)c1 [Example 139, 2-{3-[(5-methyl-3-{3-[4-(trifluoromethoxy)phenyl]-1,2,4-oxadiazol-5-yl}-1H-1,2,4-triazol-1-yl)methyl]benzenesulfonamido}acetamide]",100 to 1000
14,"Cc1nc(-c2nc(-c3ccc(OC(F)(F)F)cc3)no2)nn1Cc1cccc(C(F)(F)F)c1 [Example 102, 5-(5-methyl-1-(3-(trifluoromethyl)benzyl)-1H-1,2,4-triazol-3-yl)-3-(4-(trifluoromethoxy)phenyl)-1,2,4-oxadiazole]",1000 to 10000
15,"Cc1nc(-c2nc(-c3ccc(OC(F)(F)F)cc3)no2)nn1Cc1ccccc1 [Example 24, 5-(1-Benzyl-5-methyl-1H-1,2,4-triazol-3-yl)-3-(4-(trifluoromethoxy)phenyl)-1,2,4-oxadiazole]",100 to 1000
16,"Cc1ccc(Cn2nc(-c3nc(-c4ccc(OC(F)(F)F)cc4)no3)nc2C)cc1 [Example 15, 5-(5-Methyl-1-(4-methylbenzyl)-1H-1,2,4-triazol-3-yl)-3-(4-(trifluoromethoxy)phenyl)-1,2,4-oxadiazole]",< 100
17,"Cc1nc(-c2nc(-c3ccc(OC(F)(F)F)cc3)no2)nn1Cc1cnccn1 [Example 54, 5-(5-Methyl-1-(pyrazin-2-ylmethyl)-1H-1,2,4-triazol-3-yl)-3-(4-(trifluoromethoxy)phenyl)-1,2,4-oxadiazole]",1000 to 10000
18,"Cc1nc(-c2nc(-c3ccc(OC(F)(F)F)cc3)no2)nn1Cc1cnc(N2CCOCC2)s1 [Example 18, 4-(5-((5-Methyl-3-(3-(4-(trifluoromethoxy)phenyl)-1,2,4-oxadiazol-5-yl)-1H-1,2,4-triazol-1-yl)methyl)thiazol-2-yl)morpholine]",1000 to 10000
19,"Cc1nc(-c2ncc(-c3ccc(OC(F)(F)F)cc3)o2)nn1Cc1cccc(S(=O)(=O)N2CCOCC2)c1 [Example 153, 4-{3-[(5-methyl-3-{5-[4-(trifluoromethoxy)phenyl]-1,3-oxazol-2-yl}-1H-1,2,4-triazol-1-yl)methyl]benzenesulfonyl}morpholine]",100 to 1000
20,"Cc1nc(-c2nc(-c3ccc(OC(F)(F)F)cc3)no2)nn1Cc1ccnc(N2CCC(C#N)CC2)c1 [Example 27, 1-(4-((5-Methyl-3-(3-(4-(trifluoromethoxy)phenyl)-1,2,4-oxadiazol-5-yl)-1H-1,2,4-triazol-1-yl)methyl)pyridin-2-yl)piperidine-4-carbonitrile]",< 100
21,"COCCCn1ccc(Cn2nc(-c3nc(-c4ccc(OC(F)(F)F)cc4)no3)nc2C)cc1=O [Example 142, 1-(3-methoxypropyl)-4-[(5-methyl-3-{3-[4-(trifluoromethoxy)phenyl]-1,2,4-oxadiazol-5-yl}-1H-1,2,4-triazol-1-yl)methyl]-1,2-dihydropyridin-2-one]",100 to 1000
22,"Cc1nc(-c2nc(-c3ccc(OC(F)(F)F)cc3)no2)nn1Cc1ccnc(NCCN2CCOCC2)c1 [Example 35, 4-((5-Methyl-3-(3-(4-(trifluoromethoxy)phenyl)-1,2,4-oxadiazol-5-yl)-1H-1,2,4-triazol-1-yl)methyl)-N-(2-morpholinoethyl)pyridin-2-amine]",< 100
23,"Cc1nc(-c2nc(-c3ccc(OC(F)F)cc3)no2)nn1Cc1ccnc(N2CCN(C)CC2)c1 [Example 23, 4-(4-((3-(3-(4-(Difluoromethoxy)phenyl)-1,2,4-oxadiazol-5-yl)-5-methyl-1H-1,2,4-triazol-1-yl)methyl)pyridin-1-ium-2-yl)-1-methylpiperazin-1-ium bis-trifluoroacetate]",100 to 1000
24,"Cc1nc(-c2nc(-c3ccc(OC(F)(F)F)cc3)no2)nn1Cc1cccc(N2CCCC2)c1 [Example 50, 5-(5-Methyl-1-(3-(pyrrolidin-1-yl)benzyl)-1H-1,2,4-triazol-3-yl)-3-(4-(trifluoromethoxy)phenyl)-1,2,4-oxadiazole]",100 to 1000
25,"Cc1nc(-c2nnc(-c3ccc(C(C)(C)C)cc3)o2)nn1Cc1cccc(N2CCN(C)CC2)c1 [Example 8, 2-(4-(tert-Butyl)phenyl)-5-(5-methyl-1-(3-(4-methylpiperazin-1-yl)benzyl)-1H-1,2,4-triazol-3-yl)-1,3,4-oxadiazole]",< 100
26,"FC(F)(F)Oc1ccc(-c2noc(-c3nc(C4CC4)n(Cc4ccccc4)n3)n2)cc1 [Example 34, 5-(1-Benzyl-5-cyclopropyl-1H-1,2,4-triazol-3-yl)-3-(4-(trifluoromethoxy)phenyl)-1,2,4-oxadiazole]",1000 to 10000
27,"Cc1nc(-c2nc(-c3ccc(OC(F)(F)F)cc3)no2)nn1Cc1ccnc(N2CCC(C)(C)CC2)c1 [Example 31, 5-(1-((2-(4,4-Dimethylpiperidin-1-yl)pyridin-4-yl)methyl)-5-methyl-1H-1,2,4-triazol-3-yl)-3-(4-(trifluoromethoxy)phenyl)-1,2,4-oxadiazole]",< 100
28,"Cc1nc(-c2nc(-c3ccc(OC(F)(F)F)cc3)no2)nn1Cc1cccc(N2CCCS2(=O)=O)c1 [Example 147, 2-(3-((5-methyl-3-(3-(4-(trifluoromethoxy)phenyl)-1,2,4-oxadiazol-5-yl)-1H-1,2,4-triazol-1-yl)methyl)phenyl)isothiazolidine 1,1-dioxide]",< 100
29,"Cc1nc(-c2nc(-c3ccc(OC(F)(F)F)cc3)no2)nn1Cc1cccc(C(=O)N2CCN(C)CC2)c1 [Example 13, (3-((5-Methyl-3-(3-(4-(trifluoromethoxy)phenyl)-1,2,4-oxadiazol-5-yl)-1H-1,2,4-triazol-1-yl)methyl)phenyl)(4-methylpiperazin-1-yl)methanone]",< 100
30,"COc1cccc(Cn2nc(-c3nc(-c4ccc(OC(F)(F)F)cc4)no3)nc2C)c1 [Example 101, 5-(1-(3-methoxybenzyl)-5-methyl-1H-1,2,4-triazol-3-yl)-3-(4-(trifluoromethoxy)phenyl)-1,2,4-oxadiazole]",100 to 1000
